Where a SMILES comes first, the peptide text is derived from it. Bridges are numbered along the chain shown (N, C = ends).
Tests used:
M. luteus B-1314 = test: Antimicrobial assay, broth microdilution MIC; assay type: cell-based, Micrococcus luteus; conditions: M. luteus B-1314, Gram +, MH medium with NaCl, 24 h 37 °C, median of three independent triplicated experiments
Description: (§1) Bacterial test cultures were grown in the Mueller-Hinton (MH) medium at 37 °C to mid-log phase and then diluted with the 2 x MH medium supplemented with 1.8% NaCl. 50 µL of the bacterial suspension with a final cell concentration of 10^6 CFU/mL were added to aliquots of 50 µL of the peptide solutions and serially diluted with sterilized 0.1% bovine serum albumin in 96-well flat-bottom polystyrene microplates (Eppendorf, Hamburg, Germany). Bacterial cells were incubated for 24 h at 37 °C and 900 rpm on the plate thermoshaker (Biosan, Riga, Latvia). The minimum inhibitory concentrations (MIC) were determined as the lowest peptide concentration that prevented growth of a test microorganism observed as visible turbidity. The results were expressed as median values of three independent triplicated experiments. Assessment of antimicrobial activities of the recombinant PM III, other polyphemusins, and tachyplesins was conducted against Gram-negative (Escherichia coli ML-35p, Klebsiella pneumoniae (clinical isolate, CI 287), Pseudomonas aeruginosa PAO1) and Gram-positive (Staphylococcus aureus ATCC 29213, Staphylococcus aureus 209P, Bacillus subtilis B-886, Micrococcus luteus B-1314) bacteria.

[1] = system: HL-60 (acute promyelocytic leukemia); assay type: cell-based, human; conditions: MTT after 48 h, RPMI-1640 with 10% FBS, mean ± SD of at least three independent experiments
Description: Cytotoxic activities of PM III, its isoforms, and tachyplesins against seven human cell lines were evaluated. Four cancer (HL-60 acute promyelocytic leukemia, HeLa cervix adenocarcinoma, SK-BR-3 breast adenocarcinoma, A549 lung carcinoma), one transformed (HEK 293T transformed human embryonic kidney), and two normal human cell lines (HEF human embryonic fibroblasts and NHA normal human astrocytes) were used for these experiments. Cytotoxicity was measured by incubating the cells with serial dilutions of PM I, PM II, PM III, TP I, TP II, or TP III samples followed by MTT assay after 48 h. The half-maximal inhibitory concentrations (IC50) were measured as the peptide concentration at which cell viability was reduced by 50% in comparison to untreated cells (Table 3).
The following tumor and transformed cell lines were used in this study: HL-60 (acute promyelocytic leukemia), HeLa (human cervix adenocarcinoma cells), SK-BR-3 (human breast adenocarcinoma cells), A549 (human lung carcinoma cells), HEK 293T (transformed human embryonic kidney cells), HEF (human embryonic fibroblasts), and NHA (normal human astrocytes) were used as normal cell lines. Tumor and transformed cell lines were obtained from the American Type Culture Collection (ATCC; www.atcc.org). Primary cells HEF (normal human embryonic fibroblasts derived from human embryonic stem cells) and NHA (normal human astrocytes derived from human fetal brain tissue) were obtained and cultured according to the corresponding protocol. Briefly, cells were cultured in DMEM/F12 (1:1) or RPMI-1640 medium containing 10% fetal bovine serum (Invitrogen, USA) at 37 °C in the atmosphere containing 5% CO2 and 95% air according to standard mammalian tissue culture protocols and using a sterile technique. All cell lines were tested by using the LookOut® Mycoplasma PCR Detection Kit (Sigma-Aldrich, St. Louis, MO, USA) according to the manufacturer’s protocol and found to be free of Mycoplasma infection.
The colorimetric 3-(4,5-dimethylthiazol-2-yl)-2,5-diphenyltetrazolium bromide (MTT) dye reduction assay was used to determine the cytotoxicity of the polyphemusins and tachyplesins. Cells (3 × 10^3–6 × 10^3 per well) were placed into 96-well plates in Dulbecco’s modified Eagle’s medium (DMEM/F12) supplemented with 10% fetal bovine serum (FBS). After incubation in the atmosphere containing 5% CO2 and 95% air at 37 °C overnight, the media were discarded, and polyphemusins or tachyplesins solutions were added to the cell cultures up to final concentrations of 2.5, 5, 10, 25, and 50 μM in a final volume of 0.1 mL DMEM/F12 with 10% FBS. HL-60 cells (4 × 10^4 in 50 μL) were added to two-time serial dilutions of polyphemusins solutions at a final concentration of 1.25, 2.5, 5, 10, 25, and 50 μM in 50 μL RPMI-1640 with 10% FBS. 48 hours later, 20 μL of MTT (5 mg/mL) was added into each well and the plates were incubated for 3 h at 37 °C. The plates with HL-60 cells were centrifuged for 10 min at 300 g. The media were discarded and 0.1 mL of dimethyl sulfoxide and isopropanol mixture at a ratio of 1:1 (v/v) was added to each well to dissolve the crystallized formazan. The absorbance at 570 nm was measured by a microplate reader (Eppendorf, Hamburg, Germany).

P. aeruginosa PAO1 = test: Antimicrobial assay, broth microdilution MIC; assay type: cell-based, Pseudomonas aeruginosa; conditions: P. aeruginosa PAO1, Gram -, MH medium with NaCl, 24 h 37 °C, median of three independent triplicated experiments
Description: as §1

[2] = RP-HPLC retention time as measure of hydrophobicity; assay type: physicochemical; conditions: semi-preparative RP-HPLC, C18 column, linear gradient 5 to 80% (v/v) acetonitrile in water with 0.1% TFA within 1 h; used as indicator of hydrophobicity
Excerpt: The PM III IC50 values were lower than those determined for PM I and PM II. We speculate that the higher cytotoxicity of PM III might be due to its higher hydrophobicity. In comparison to other tested peptides, the retention time of PM III measured during RP-HPLC indicated its higher hydrophobicity (Table 1). […] Increased hydrophobicity of these analogs caused higher cytotoxic effects. […] Cell membranes contain different phospholipids, which sustain the amphipathic features due to the formation of hydrophilic and hydrophobic domains in the membrane structure. Well-known differences between the composition of bacterial and mammalian cell membranes provide the evidence for selectivity of the peptides’ action. Bacterial membranes predominantly consist of phosphatidylserine, phosphatidylglycerol, and cardiolipin having a net negative charge. Tumor cell bilayers are also enriched in anionic molecules, such as phosphatidylserine, sialylated gangliosides, O-glycosylated mucins, and heparin sulfate. In contrast, zwitterionic phospholipids—phosphatidylcholine, phosphatidylethanolamine, and sphingomyelin—are abundant in the cytoplasmic membranes of non-cancer mammalian cells. Electrically neutral normal mammalian membranes prevent their recognition by positively charged antimicrobial peptides, and binding to these membranes is enabled by hydrophobic interactions. Thus, modulation of hydrophobicity of antimicrobial peptides, and also peptoid molecules, may be followed by non-specific interaction with erythrocytes as it was shown in previously published studies. […] Suboptimal high hydrophobic properties may not only result in increased toxicity to erythrocytes, but even in a reduction of antibacterial activity. Several protegrin-1 synthetic analogs with different hydrophobicities were characterized earlier. The analog with substitutions of valine by leucine that was more hydrophobic than naturally occurring protegrin-1 and the analog with substitutions of valine by fluorinated leucine had the most hydrophobic properties than other tested peptides. […] Therefore, half-hemolysis concentration and IC50 effective concentration were in different ranges.

Row | SMILES | MICs (M. luteus B-1314) [µM] | IC50 [1] [µM] | MICs (P. aeruginosa PAO1) [µM] | RP-HPLC Retention Time [2] [min]
1 | CC[C@H](C)[C@@H]1NC(=O)CNC(=O)[C@H](CCCNC(=N)N)NC(=O)[C@H](Cc2ccc(O)cc2)NC(=O)[C@@H]2CSSC[C@H](NC1=O)C(=O)N[C@@H](Cc1ccc(O)cc1)C(=O)N[C@@H](CCCNC(=N)N)C(=O)N[C@@H](CCCNC(=N)N)C(=O)N[C@H](C(=O)N[C@@H](CCCNC(=N)N)C(=O)O)CSSC[C@H](NC(=O)[C@H](Cc1c[nH]c3ccccc13)NC(=O)[C@@H](N)CCCCN)C(=O)N[C@@H](Cc1ccccc1)C(=O)N[C@@H](CCCNC(=N)N)C(=O)N[C@@H](C(C)C)C(=O)N2 [TP I, tachyplesin I] (H-KWCFRVCYRGICYRRCR-OH; disulfide 3-16, 7-12 (inferred); N-terminus assumed) | 1 | 4.8 ± 0.3 | 0.5 | 35.5
2 | CC[C@H](C)[C@@H]1NC(=O)CNC(=O)[C@H](CCCNC(=N)N)NC(=O)[C@H](Cc2ccc(O)cc2)NC(=O)[C@@H]2CSSC[C@H](NC1=O)C(=O)N[C@@H](Cc1ccc(O)cc1)C(=O)N[C@@H](CCCNC(=N)N)C(=O)N[C@@H](CCCCN)C(=O)N[C@H](C(=O)N[C@@H](CCCNC(=N)N)C(=O)O)CSSC[C@H](NC(=O)[C@H](Cc1c[nH]c3ccccc13)NC(=O)[C@@H](N)CCCCN)C(=O)N[C@@H](Cc1ccccc1)C(=O)N[C@@H](CCCNC(=N)N)C(=O)N[C@@H](C(C)C)C(=O)N2 [TP III, tachyplesin III] (H-KWCFRVCYRGICYRKCR-OH; disulfide 3-16, 7-12 (inferred); N-terminus assumed) | 2 | 5 ± 0.4 | 0.5 | 35.5
3 | CC(C)[C@@H]1NC(=O)[C@H](CCCNC(=N)N)NC(=O)[C@H](Cc2ccccc2)NC(=O)[C@@H](NC(=O)[C@H](Cc2c[nH]c3ccccc23)NC(=O)[C@H](CCCNC(=N)N)NC(=O)[C@@H](N)CCCNC(=N)N)CSSC[C@@H](C(=O)N[C@@H](CCCNC(=N)N)C(=O)O)NC(=O)[C@H](CCCCN)NC(=O)[C@H](CCCNC(=N)N)NC(=O)[C@H](Cc2ccc(O)cc2)NC(=O)[C@@H]2CSSC[C@H](NC1=O)C(=O)N[C@@H](Cc1ccc(O)cc1)C(=O)N[C@@H](CCCCN)C(=O)NCC(=O)N[C@@H](Cc1ccccc1)C(=O)N2 [PM II, polyphemusin II] (H-RRWCFRVCYKGFCYRKCR-OH; disulfide 4-17, 8-13 (inferred); N-terminus assumed) | 1 | 7.2 ± 0.5 | 0.5 | 35.4
4 | CC[C@H](C)[C@@H]1NC(=O)CNC(=O)[C@H](CCCNC(=N)N)NC(=O)[C@H](Cc2ccc(O)cc2)NC(=O)[C@@H]2CSSC[C@H](NC1=O)C(=O)N[C@@H](Cc1ccc(O)cc1)C(=O)N[C@@H](CCCNC(=N)N)C(=O)N[C@@H](CCCCN)C(=O)N[C@H](C(=O)N[C@@H](CCCNC(=N)N)C(=O)O)CSSC[C@H](NC(=O)[C@H](Cc1c[nH]c3ccccc13)NC(=O)[C@@H](N)CCCNC(=N)N)C(=O)N[C@@H](Cc1ccccc1)C(=O)N[C@@H](CCCNC(=N)N)C(=O)N[C@@H](C(C)C)C(=O)N2 [TP II, tachyplesin II] (H-RWCFRVCYRGICYRKCR-OH; disulfide 3-16, 7-12 (inferred); N-terminus assumed) | 1 | 5.6 ± 0.5 | 0.5 | 35.9
5 | CC(C)[C@@H]1NC(=O)[C@H](CCCNC(=N)N)NC(=O)[C@H](Cc2ccccc2)NC(=O)[C@@H](NC(=O)CNC(=O)[C@H](CCCNC(=N)N)NC(=O)[C@@H](N)CCCNC(=N)N)CSSC[C@@H](C(=O)N[C@@H](CCCNC(=N)N)C(=O)O)NC(=O)[C@H](CCCNC(=N)N)NC(=O)[C@H](CCC(N)=O)NC(=O)[C@H](Cc2ccccc2)NC(=O)[C@@H]2CSSC[C@H](NC1=O)C(=O)N[C@@H](Cc1ccc(O)cc1)C(=O)N[C@@H](CCCNC(=N)N)C(=O)NCC(=O)N[C@@H](Cc1ccccc1)C(=O)N2 [PM III, polyphemusin III] (H-RRGCFRVCYRGFCFQRCR-OH; disulfide 4-17, 8-13 (inferred); N-terminus assumed) | 0.5 | 2.5 ± 0.1 | 0.5 | 36.2
6 | CC(C)[C@@H]1NC(=O)[C@H](CCCNC(=N)N)NC(=O)[C@H](Cc2ccccc2)NC(=O)[C@@H](NC(=O)[C@H](Cc2c[nH]c3ccccc23)NC(=O)[C@H](CCCNC(=N)N)NC(=O)[C@@H](N)CCCNC(=N)N)CSSC[C@@H](C(=O)N[C@@H](CCCNC(=N)N)C(=O)O)NC(=O)[C@H](CCCCN)NC(=O)[C@H](CCCNC(=N)N)NC(=O)[C@H](Cc2ccc(O)cc2)NC(=O)[C@@H]2CSSC[C@H](NC1=O)C(=O)N[C@@H](Cc1ccc(O)cc1)C(=O)N[C@@H](CCCNC(=N)N)C(=O)NCC(=O)N[C@@H](Cc1ccccc1)C(=O)N2 [PM I, polyphemusin I] (H-RRWCFRVCYRGFCYRKCR-OH; disulfide 4-17, 8-13 (inferred); N-terminus assumed) | 0.5 | 7.2 ± 0.5 | 0.5 | 35.5

Source: article PMC6315362, “Cytotoxic Potential of the Novel Horseshoe Crab Peptide Polyphemusin III” (Marine Drugs, 2018)
